Assay results published in PMC9785202, “Changes in Disposition of Ezetimibe and Its Active Metabolites Induced by Impaired Hepatic Function: The Influence of Enzyme and Transporter Activities” (Pharmaceutics, 2022).

Assays:
[1] = parameters: method as in PMID 11901097; conditions: cited from earlier work
[2] = parameters: method as in PMID 10780982; conditions: intraduodenal administration of EZE; cited from earlier work
[3] = target: T1, OATP1B3 (Homo sapiens, UniProt Q9NPD5); test: Uptake of EZE-Ph into OATP1B3-transfected HEK293 cells; assay type: in vitro ADME; parameters: host or cells: HEK293
T1 sequence (Q9NPD5 1-702): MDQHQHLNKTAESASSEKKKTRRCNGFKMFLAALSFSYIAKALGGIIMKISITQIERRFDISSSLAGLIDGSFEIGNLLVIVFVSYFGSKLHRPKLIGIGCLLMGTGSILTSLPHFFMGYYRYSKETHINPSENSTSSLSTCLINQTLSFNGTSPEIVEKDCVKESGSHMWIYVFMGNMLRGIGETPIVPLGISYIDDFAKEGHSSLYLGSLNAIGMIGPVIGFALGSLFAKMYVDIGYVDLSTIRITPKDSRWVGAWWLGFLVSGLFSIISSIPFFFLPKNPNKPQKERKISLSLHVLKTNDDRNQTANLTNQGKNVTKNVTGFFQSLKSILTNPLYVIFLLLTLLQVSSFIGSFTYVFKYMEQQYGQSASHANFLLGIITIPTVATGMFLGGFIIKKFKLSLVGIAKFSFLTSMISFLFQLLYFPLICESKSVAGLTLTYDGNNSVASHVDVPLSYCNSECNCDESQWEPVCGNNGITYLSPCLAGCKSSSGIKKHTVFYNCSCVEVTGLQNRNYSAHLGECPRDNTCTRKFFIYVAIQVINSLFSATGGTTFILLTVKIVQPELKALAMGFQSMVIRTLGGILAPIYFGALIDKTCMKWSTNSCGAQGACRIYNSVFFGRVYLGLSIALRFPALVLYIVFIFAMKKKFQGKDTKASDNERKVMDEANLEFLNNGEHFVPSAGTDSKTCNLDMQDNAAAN
Method: (§1) The kinetic parameters and the half inhibitory concentration (IC50) were calculated using GraphPad Prism. […] The intrinsic clearance (CLint) was calculated as CLint = Vmax/Km.

[4] = target: T2, OAT3 (Homo sapiens, UniProt Q8TCC7); test: Uptake of EZE-Ph into OAT3-transfected HEK293 cells; assay type: in vitro ADME
T2 construct: host or cells: HEK293
T2 sequence (Q8TCC7 1-542): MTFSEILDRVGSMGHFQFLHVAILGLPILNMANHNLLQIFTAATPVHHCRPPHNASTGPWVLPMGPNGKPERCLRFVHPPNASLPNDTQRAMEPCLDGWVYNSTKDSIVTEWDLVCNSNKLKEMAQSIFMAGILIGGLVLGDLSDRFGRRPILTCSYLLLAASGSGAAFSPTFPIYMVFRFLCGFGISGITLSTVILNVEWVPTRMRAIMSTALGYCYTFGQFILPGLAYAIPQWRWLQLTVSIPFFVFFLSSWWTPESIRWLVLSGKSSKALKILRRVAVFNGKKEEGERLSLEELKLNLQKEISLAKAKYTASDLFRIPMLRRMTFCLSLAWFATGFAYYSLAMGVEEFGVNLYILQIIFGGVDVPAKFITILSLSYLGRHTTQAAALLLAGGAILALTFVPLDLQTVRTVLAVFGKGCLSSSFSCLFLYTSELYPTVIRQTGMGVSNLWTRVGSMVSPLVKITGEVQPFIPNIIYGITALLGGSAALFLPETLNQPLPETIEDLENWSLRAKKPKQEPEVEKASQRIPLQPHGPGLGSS
Method: as §1

[5] = target: T3, OATP1B1 (Homo sapiens, UniProt Q9Y6L6); test: Uptake of EZE-Ph into OATP1B1-transfected HEK293 cells; assay type: in vitro ADME
T3 construct: host or cells: HEK293
T3 sequence (Q9Y6L6 1-691): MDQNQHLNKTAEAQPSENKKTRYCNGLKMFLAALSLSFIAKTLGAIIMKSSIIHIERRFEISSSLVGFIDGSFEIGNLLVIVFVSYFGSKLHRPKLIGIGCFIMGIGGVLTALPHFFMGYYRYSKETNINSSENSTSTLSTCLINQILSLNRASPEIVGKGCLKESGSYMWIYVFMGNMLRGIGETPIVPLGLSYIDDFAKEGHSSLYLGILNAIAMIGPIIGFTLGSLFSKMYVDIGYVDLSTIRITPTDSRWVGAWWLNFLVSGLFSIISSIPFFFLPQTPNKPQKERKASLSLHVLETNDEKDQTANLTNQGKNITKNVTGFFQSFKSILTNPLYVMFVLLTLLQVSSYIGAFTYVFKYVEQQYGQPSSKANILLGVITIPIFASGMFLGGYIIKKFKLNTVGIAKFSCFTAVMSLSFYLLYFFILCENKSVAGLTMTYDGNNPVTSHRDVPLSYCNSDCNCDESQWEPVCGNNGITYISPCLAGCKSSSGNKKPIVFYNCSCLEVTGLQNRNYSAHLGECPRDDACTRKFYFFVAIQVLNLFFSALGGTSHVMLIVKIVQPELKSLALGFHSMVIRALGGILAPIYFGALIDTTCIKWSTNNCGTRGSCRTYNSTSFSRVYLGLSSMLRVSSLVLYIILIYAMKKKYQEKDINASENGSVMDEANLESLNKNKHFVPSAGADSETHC
Method: as §1

[6] = tested on: OAT1; test: Uptake of EZE-Ph into OAT1-transfected HEK293 cells; assay type: in vitro ADME, human; conditions: 10 μM EZE-Ph
Method: (§2) Human OATP1B1-, OATP1B3-, OATP2B1-, OAT1-, OAT3-, or OCT2-transfected HEK293 cells and vector-transfected control cells (mock) were constructed at HD Biosciences Co., Ltd. (Shanghai, China). The functions of these transporters were evaluated using relevant positive substrates and inhibitors. Estradiol-17β-glucuronide (5 μM, OATP1B1 and OATP1B3), estrone 3-sulfate sodium salt (E3S, 5 μM, OATP2B1), para-aminohippuric acid (PAH, 20 μM, OAT1), furosemide (5 μM, OAT3), and 1-methyl-4-phenyl pyridinium (MPP^+, 5 μM, OCT2) were used as substrates for the transporters. […] The cells (50,000 per well) were cultured in Dulbecco’s modified Eagle’s medium (containing 10% fetal bovine serum, 1% GlutaMAX-I, 1% penicillin G/streptomycin, and 1% nonessential amino acids) on poly-D-lysine-coated 96-well plates at 37 °C in an atmosphere of 5% CO2.
(§3) The cells were rinsed three times with HBSS (37 °C) and then equilibrated in HBSS for 10 min. […] The protein content was measured using a BCA protein assay kit. The concentrations of EZE and EZE-Ph were determined using LC-MS/MS.
(§4) The rates of substrate uptake were normalized using the protein contents of cell lysates. The net uptake via transporters was calculated by subtracting the uptake in vector-transfected HEK293 cells (or uptake into hepatocytes at 4 °C) from that in transporter-transfected HEK293 cells (or uptake into hepatocytes at 37 °C).

[7] = tested on: OCT2; test: Uptake of EZE-Ph into OCT2-transfected HEK293 cells; assay type: in vitro ADME, human; conditions: 10 μM EZE-Ph
Method: as §2, §3, §4

[8] = OATP1B3 HEK293, uptake time 5 min

| uptake in transporter-transfected cells relative to mock-transfected cells ([3]; 10 μM EZE-Ph, OATP1B3 HEK293) [times] | CLint ([3]; OATP1B3 HEK293, CLint = Vmax/Km) [μL/min/mg Protein] | Kinetic Model [3, 8] | Vmax [3, 8] [pmol/min/mg Protein] | Km at 5 min ([3]; human, OATP1B3-transfected HEK293 cells, OATP1B3 HEK293, uptake time 5 min) [µM] | uptake in transporter-transfected cells relative to mock-transfected cells ([4]; 10 μM EZE-Ph, OAT3 HEK293) [times] | CLint ([4]; OAT3 HEK293, CLint = Vmax/Km) [μL/min/mg Protein] | h (Hill slope) ([4]; OAT3 HEK293, allosteric sigmoidal model) | Kinetic Model ([4]; OAT3 HEK293, uptake time 5 min) | uptake in transporter-transfected cells relative to mock-transfected cells ([5]; 10 μM EZE-Ph, OATP1B1 HEK293) [times] | CLint ([5]; OATP1B1 HEK293, CLint = Vmax/Km) [μL/min/mg Protein] | Kinetic Model ([5]; OATP1B1 HEK293, uptake time 5 min) | uptake in transporter-transfected cells relative to mock-transfected cells [6] | uptake in transporter-transfected cells relative to mock-transfected cells [7] | SMILES | share of the EZE-related material in human plasma [1] | EZE-Ph generated in the intestine [2] [%] |
| --- | --- | --- | --- | --- | --- | --- | --- | --- | --- | --- | --- | --- | --- | --- | --- | --- |
| – | – | – | – | – | – | – | – | – | – | – | – | – | – | O=C1[C@H](CC[C@H](O)c2ccc(F)cc2)[C@@H](c2ccc(O)cc2)N1c1ccc(F)cc1 [EZE, 1-(4-fluorophenyl)-3(R)-[3-(4-fluorophenyl)-3(S)-hydroxypropyl]-4(S)-(4-hydroxyphenyl)-2-azetidinone, reference compound] | 10–20% | – |
| 56 | 6.73 | Substrate inhibition | 134 | 19.9 | 8.9 | 1.84 | 1.19 | Allosteric sigmoidal | 5.3 | 0.56 | Substrate inhibition | less than twice | less than twice | O=C(O)[C@H]1O[C@@H](Oc2ccc([C@@H]3[C@@H](CC[C@H](O)c4ccc(F)cc4)C(=O)N3c3ccc(F)cc3)cc2)[C@H](O)[C@@H](O)[C@@H]1O [EZE-Ph, ezetimibe phenoxy β-D-glucuronide] | – | > 95 |
